Measurements taken from US20260159512A1, “BCAT2 INHIBITORS” (AGIOS PHARMACEUTICALS, INC., priority 2021, published 2026).
Where “and” joins values, the source holds several entries; their conditions need not be identical. Equal values may be shown once.

Assays:
Settings in all cases: average where tested multiple times
BCAT2 [1] = target: T1, BCAT2 (Homo sapiens, UniProt O15382); assay: BCAT2 in vitro enzyme inhibition assay (resazurin/diaphorase-coupled fluorescence); type: biochemical
T1 sequence (O15382 28-392): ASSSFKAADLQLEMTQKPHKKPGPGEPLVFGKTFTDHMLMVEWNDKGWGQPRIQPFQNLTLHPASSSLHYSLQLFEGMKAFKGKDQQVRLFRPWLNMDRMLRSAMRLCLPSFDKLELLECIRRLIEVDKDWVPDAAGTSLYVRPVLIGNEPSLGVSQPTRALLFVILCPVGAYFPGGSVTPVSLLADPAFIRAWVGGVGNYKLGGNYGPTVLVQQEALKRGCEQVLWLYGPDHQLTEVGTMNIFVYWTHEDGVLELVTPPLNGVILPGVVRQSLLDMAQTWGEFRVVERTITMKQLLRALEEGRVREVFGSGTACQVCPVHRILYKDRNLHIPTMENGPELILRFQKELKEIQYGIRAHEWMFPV
In short: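 Coupled fluorescence readout: glutamate formed from L-leucine/α-ketoglutarate transamination drives GDH/NAD/diaphorase reduction of resazurin (Ex 540/Em 590). Human BCAT2 was first exposed 1 h at room temperature to compound, top final 100 μM in 3-fold, 10-point series; substrate reaction ran 1 h before SDS quench, in technical duplicate with DMSO max and enzyme-free min controls.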

hBCAT1 = target: T2, hBCAT1 (Homo sapiens, UniProt P54687); assay: BCAT1 in vitro enzyme inhibition assay (resazurin/diaphorase-coupled fluorescence); type: biochemical
T2 sequence (P54687 1-386): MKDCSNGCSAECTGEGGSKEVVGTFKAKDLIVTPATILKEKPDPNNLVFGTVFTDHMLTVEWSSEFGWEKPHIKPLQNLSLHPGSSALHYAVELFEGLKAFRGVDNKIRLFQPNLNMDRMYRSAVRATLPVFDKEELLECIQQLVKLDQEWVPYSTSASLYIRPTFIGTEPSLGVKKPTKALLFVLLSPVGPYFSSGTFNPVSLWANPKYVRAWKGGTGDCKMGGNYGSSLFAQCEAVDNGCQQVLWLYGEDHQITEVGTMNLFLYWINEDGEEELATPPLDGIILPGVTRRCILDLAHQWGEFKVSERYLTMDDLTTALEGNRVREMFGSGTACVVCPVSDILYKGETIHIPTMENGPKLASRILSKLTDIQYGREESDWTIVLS
In short: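 Human BCAT1 activity read by resazurin/diaphorase-coupled fluorescence. Compounds added from 50× DMSO stocks at 1:50, giving 10-point 3-fold titrations from 100 μM top final concentration. Run in technical duplicate; repeat tests averaged.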

BCAT2 [2] = target: T1, BCAT2; assay: BCAT2 in vitro cell inhibition using engineered A549 cells (KMV cell assay, 13C6-KMV by LC-MS/MS); type: cell-based; parameters: The result was an engineered A549 cell line that expressed endogenous BCAT2; endogenous in cells; host or cells: A549 cells with MUT and BCAT1 knocked out by CRISPR/CAS9; key to BCAT2 Cell Inhibition: A: less than or equal to 0.100 μM; B: greater than 0.100 and less than or equal to 0.500 μM; C: greater than 0.500 and less than or equal to 1.000 μM; d: greater than 1.000 μM; E: no fit

| Structure (SMILES) | IC50 (BCAT2 [1]) | IC50 (hBCAT1) [nM] | IC50 (BCAT2 [2]) [nM] | BCAT2 Cell Inhibition (BCAT2 [2]) |
| --- | --- | --- | --- | --- |
| CS(=O)(=O)N1C[C@H](NC(=O)c2ccc(Cl)s2)C[C@H](n2c(-c3ccccc3F)nc3cnc(-c4nc[nH]n4)cc32)C1 [Example 458, 5-chloro-N-((3R,5S)-5-(2-(2-fluorophenyl)-6-(1H-1,2,4-triazol-3-yl)-1H-imidazo[4,5-c]pyridin-1-yl)-1-(methylsulfonyl)piperidin-3-yl)thiophene-2-carboxamide] | ≤ 100 nM | < 500 | ≤ 100 | – |
| CC(C)Cc1nc2cnc(-n3nccn3)cc2n1[C@@H]1CCC[C@H](NC(=O)c2ncc(Cl)s2)[C@H]1O [Example 227, 5-chloro-N-((1S,2R,3R)-2-hydroxy-3-(2-isobutyl-6-(2H-1,2,3-triazol-2-yl)-1H-imidazo[4,5-c]pyridin-1-yl)cyclohexyl)thiazole-2-carboxamide] | ≤ 100 nM | < 500 | ≤ 100 | – |
| CC(C)Cc1nc2cnc(-c3ccccc3CC#N)cc2n1[C@@H]1CCC[C@H](NC(=O)c2ccc(Cl)s2)C1 [Example 332, 5-chloro-N-((1S,3R)-3-(6-(2-(cyanomethyl)phenyl)-2-isobutyl-1H-imidazo[4,5-c]pyridin-1-yl)cyclohexyl)thiophene-2-carboxamide] | 100 to 500 nM | 500 to 1000 | 500 to 1000 | – |
| O=C(N[C@H]1CCC[C@@H](n2c(-c3ccccc3F)nc3cnc(-c4ccc(F)cn4)cc32)C1)c1ncc(Cl)s1 [Example 170, 5-chloro-N-((1S,3R)-3-(2-(2-fluorophenyl)-6-(5-fluoropyridin-2-yl)-1H-imidazo[4,5-c]pyridin-1-yl)cyclohexyl)thiazole-2-carboxamide] | ≤ 100 nM | < 500 | ≤ 100 | – |
| NCc1ccccc1-c1nc2cnc(-c3nc[nH]n3)cc2n1[C@@H]1CCC[C@H](NC(=O)c2ncc(Cl)s2)C1 [Example 366, N-((1S,3R)-3-(2-(2-(aminomethyl)phenyl)-6-(1H-1,2,4-triazol-3-yl)-1H-imidazo[4,5-c]pyridin-1-yl)cyclohexyl)-5-chlorothiazole-2-carboxamide] | ≤ 100 nM | 500 to 1000 | > 1000 | – |
| O=C(NC1COCC(n2c(-c3ncccc3F)nc3cnc(-n4nccn4)cc32)C1)c1ncc(C(F)F)s1 (single isomer, unassigned) [Example 139, 5-(difluoromethyl)-N-(5-(2-(3-fluoropyridin-2-yl)-6-(2H-1,2,3-triazol-2-yl)-1H-imidazo[4,5-c]pyridin-1-yl)tetrahydro-2H-pyran-3-yl)thiazole-2-carboxamide] | > 1000 nM | > 5000 | – | E |
| CC(C)Cc1nc2cnc(-n3ncc(C(C)O)n3)cc2n1[C@@H]1CCC[C@H](NC(=O)c2ncc(Cl)s2)C1 (stereo partly drawn) [Example 350, 5-chloro-N-((1S,3R)-3-(6-(4-(1-hydroxyethyl)-2H-1,2,3-triazol-2-yl)-2-isobutyl-1H-imidazo[4,5-c]pyridin-1-yl)cyclohexyl)thiazole-2-carboxamide] | ≤ 100 nM | 500 to 1000 | 100 to 500 | – |
| O=C(N[C@H]1CCC[C@@H](n2c(C3CCCCO3)nc3cnc(-c4nc[nH]n4)cc32)C1)c1ncc(Cl)s1 (single isomer, unassigned) [Example 90] | ≤ 100 nM | < 500 | 100 to 500 | – |
| O=C(N[C@H]1CCC[C@@H](n2c(-c3ncccc3F)nc3cnc(-c4cc[nH]n4)cc32)C1)c1ncc(C(F)F)s1 [Example 55, 5-(difluoromethyl)-N-((1S,3R)-3-(2-(3-fluoropyridin-2-yl)-6-(1H-pyrazol-3-yl)-1H-imidazo[4,5-c]pyridin-1-yl)cyclohexyl)thiazole-2-carboxamide] | ≤ 100 nM | < 500 | ≤ 100 | – |
| CC(C)Cc1nc2cnc(-n3ncc(CO)n3)cc2n1[C@@H]1CCC[C@H](NC(=O)c2ncc(Cl)s2)C1 [Example 337, 5-chloro-N-((1S,3R)-3-(6-(4-(hydroxymethyl)-2H-1,2,3-triazol-2-yl)-2-isobutyl-1H-imidazo[4,5-c]pyridin-1-yl)cyclohexyl)thiazole-2-carboxamide] | ≤ 100 nM | < 500 | 500 to 1000 | – |
| C#Cc1ccc(C(=O)NC2CC(n3c(-c4ccccc4F)nc4cnc(-c5ncco5)cc43)CN(C)C2)s1 (stereo not shown) [Example 116, 5-ethynyl-N-(5-(2-(2-fluorophenyl)-6-(oxazol-2-yl)-1H-imidazo[4,5-c]pyridin-1-yl)-1-methylpiperidin-3-yl)thiophene-2-carboxamide] | ≤ 100 nM | < 500 | ≤ 100 | – |
| CC(C)Oc1nc2cnc(-n3nccn3)cc2n1[C@@H]1CCC[C@H](NC(=O)c2ncc(C(F)F)s2)C1 [Example 79, 5-(difluoromethyl)-N-((1S,3R)-3-(2-isopropoxy-6-(2H-1,2,3-triazol-2-yl)-1H-imidazo[4,5-c]pyridin-1-yl)cyclohexyl)thiazole-2-carboxamide] | 100 to 500 nM | > 5000 | > 1000 | – |
| O=C(NC1CCCC(n2c(-c3ccccn3)nc3cnc(-c4nnco4)cc32)C1)c1ccc(Br)s1 (stereo not shown) [Example 1, N-(3-(6-(1,3,4-oxadiazol-2-yl)-2-(pyridin-2-yl)-1H-imidazo[4,5-c]pyridin-1-yl)cyclohexyl)-5-bromothiophene-2-carboxamide] | ≤ 100 nM | 1000 to 5000 | 100 to 500 | – |
| CC(C)Cc1nc2cnc(-c3ccn(C)n3)cc2n1[C@@H]1CCC[C@H](NC(=O)c2ncc(Cl)s2)[C@H]1O [Example 223, 5-chloro-N-((1S,2R,3R)-2-hydroxy-3-(2-isobutyl-6-(1-methyl-1H-pyrazol-3-yl)-1H-imidazo[4,5-c]pyridin-1-yl)cyclohexyl)thiazole-2-carboxamide] | ≤ 100 nM | < 500 | 100 to 500 | – |
| CC(C)(C)Cc1nc2cnc(-c3ccccn3)cc2n1[C@@H]1CCC[C@H](NC(=O)c2ncc(Cl)s2)[C@H]1O [Example 389, 5-chloro-N-((1S,2R,3R)-2-hydroxy-3-(2-neopentyl-6-(pyridin-2-yl)-1H-imidazo[4,5-c]pyridin-1-yl)cyclohexyl)thiazole-2-carboxamide] | ≤ 100 nM | < 500 | ≤ 100 | – |
| O=C(O)Cc1ccccc1-c1nc2cnc(-n3nccn3)cc2n1[C@@H]1CCC[C@H](NC(=O)c2ncc(C(F)F)s2)C1 [Example 96, 2-(2-(1-((1R,3S)-3-(5-(difluoromethyl)thiazole-2-carboxamido)cyclohexyl)-6-(2H-1,2,3-triazol-2-yl)-1H-imidazo[4,5-c]pyridin-2-yl)phenyl)acetic acid] | 100 to 500 nM | 1000 to 5000 | – | E |
| CO[C@H]1C[C@@H](NC(=O)c2ncc(Cl)s2)C[C@@H](n2c(CC(C)C)nc3cnc(-c4nc[nH]n4)cc32)C1 (stereo in doubt) [Example 432, 5-chloro-N-((1S,3R,5S)-3-(2-isobutyl-6-(1H-1,2,4-triazol-3-yl)-1H-imidazo[4,5-c]pyridin-1-yl)-5-methoxycyclohexyl)thiazole-2-carboxamide] | ≤ 100 nM | < 500 | ≤ 100 | – |
| CC(=O)N1CC(NC(=O)c2ccc(Cl)s2)CC(n2c(-c3ccccc3F)nc3cnc(-n4nccn4)cc32)C1 (stereo not shown) [Example 132, N-(1-acetyl-5-(2-(2-fluorophenyl)-6-(2H-1,2,3-triazol-2-yl)-1H-imidazo[4,5-c]pyridin-1-yl)piperidin-3-yl)-5-chlorothiophene-2-carboxamide] | ≤ 100 nM | < 500 | ≤ 100 | – |
| CC(C)Cc1nc2cnc(-c3ncnn3C)cc2n1[C@@H]1CCC[C@H](NC(=O)c2ncc(Cl)s2)C1 [Example 164, 5-chloro-N-((1S,3R)-3-(2-isobutyl-6-(1-methyl-1H-1,2,4-triazol-5-yl)-1H-imidazo[4,5-c]pyridin-1-yl)cyclohexyl)thiazole-2-carboxamide] | 100 to 500 nM and 500 to 1000 nM | > 5000 | 100 to 500 | E |
